Source: patent US20230265151A1, “GIP/GLP1 CO-AGONIST COMPOUNDS” (priority 2020, published 2023)

What was measured:
Assay type in all cases: cell-based
hGLP-1R = hGLP-1R (Homo sapiens, UniProt P43220); assay: Functional cAMP formation (HTRF) in HEK-293 clonal cells expressing hGLP-1R, 0.1% bovine casein, without or with 1.0% human serum albumin; set-up: expressed in transfected cells; details: for EC50: cAMP, incubated at 37° C., 0.1% bovine casein (no human serum albumin), geometric mean, read-out: hGLP-1R EC50, nM (SEM, n); for Emax: HEK293, percent of maximal response to GLP-1(7-36)NH2, 37° C., 0.1% bovine casein, arithmetic mean, read-out: hGLP-1R Emax, % ± SEM
Sequence of hGLP-1R (P43220 24-463): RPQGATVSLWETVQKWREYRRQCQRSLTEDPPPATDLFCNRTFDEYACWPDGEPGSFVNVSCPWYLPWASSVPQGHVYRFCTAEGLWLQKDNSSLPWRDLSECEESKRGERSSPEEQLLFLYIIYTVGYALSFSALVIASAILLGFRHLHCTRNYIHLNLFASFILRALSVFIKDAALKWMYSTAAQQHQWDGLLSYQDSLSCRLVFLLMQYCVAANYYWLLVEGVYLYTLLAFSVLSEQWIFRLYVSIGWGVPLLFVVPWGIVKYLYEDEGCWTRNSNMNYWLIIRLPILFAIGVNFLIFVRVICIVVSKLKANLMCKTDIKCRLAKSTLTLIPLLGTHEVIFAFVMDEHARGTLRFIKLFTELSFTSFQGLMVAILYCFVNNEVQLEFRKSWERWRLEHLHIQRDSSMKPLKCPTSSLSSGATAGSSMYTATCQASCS
In short: (§1)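 Readings of the HTRF 665/620 nm ratio, which falls as cAMP rises, were converted to nM cAMP using a standard curve after 30 min peptide exposure at 37° C.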

hGIPR = biological target: T1, hGIPR (Homo sapiens, UniProt P48546); assay: Functional cAMP formation (HTRF) in HEK-293 clonal cells expressing hGIPR, 0.1% bovine casein, without or with 1.0% human serum albumin; details: for Emax: HEK293, percent of maximal response to GIP(1-42)NH2, 37° C., 0.1% bovine casein, arithmetic mean, read-out: hGIPR Emax, % ± SEM; for EC50: cAMP, incubated at 37° C., 0.1% bovine casein (no human serum albumin), geometric mean, read-out: hGIPR EC50, nM (SEM, n)
T1 construct: expressed in transfected cells
T1 sequence (P48546 22-466): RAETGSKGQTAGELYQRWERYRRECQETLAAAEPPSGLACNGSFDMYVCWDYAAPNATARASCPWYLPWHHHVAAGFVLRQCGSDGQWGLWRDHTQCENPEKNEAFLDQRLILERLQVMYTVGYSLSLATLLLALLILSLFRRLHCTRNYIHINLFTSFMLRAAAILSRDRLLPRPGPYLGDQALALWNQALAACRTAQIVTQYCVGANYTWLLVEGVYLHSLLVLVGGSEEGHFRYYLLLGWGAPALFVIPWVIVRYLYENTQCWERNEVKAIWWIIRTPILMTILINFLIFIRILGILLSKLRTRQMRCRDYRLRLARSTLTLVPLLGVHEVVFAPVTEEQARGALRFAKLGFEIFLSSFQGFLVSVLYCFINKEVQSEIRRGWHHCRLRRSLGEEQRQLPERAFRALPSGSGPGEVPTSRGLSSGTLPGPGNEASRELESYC
In short: as §1

hGCGR = biological target: T2, hGCGR (Homo sapiens, UniProt P47871); assay: Functional cAMP formation (HTRF) in HEK-293 clonal cells expressing hGCGR, 0.1% bovine casein, without or with 1.0% human serum albumin; details: cAMP, incubated at 37° C., 0.1% bovine casein (no human serum albumin); geometric mean; read-out: hGCGR EC50, nM (SEM, n)
T2 construct: expressed in transfected cells
T2 sequence (P47871 26-477): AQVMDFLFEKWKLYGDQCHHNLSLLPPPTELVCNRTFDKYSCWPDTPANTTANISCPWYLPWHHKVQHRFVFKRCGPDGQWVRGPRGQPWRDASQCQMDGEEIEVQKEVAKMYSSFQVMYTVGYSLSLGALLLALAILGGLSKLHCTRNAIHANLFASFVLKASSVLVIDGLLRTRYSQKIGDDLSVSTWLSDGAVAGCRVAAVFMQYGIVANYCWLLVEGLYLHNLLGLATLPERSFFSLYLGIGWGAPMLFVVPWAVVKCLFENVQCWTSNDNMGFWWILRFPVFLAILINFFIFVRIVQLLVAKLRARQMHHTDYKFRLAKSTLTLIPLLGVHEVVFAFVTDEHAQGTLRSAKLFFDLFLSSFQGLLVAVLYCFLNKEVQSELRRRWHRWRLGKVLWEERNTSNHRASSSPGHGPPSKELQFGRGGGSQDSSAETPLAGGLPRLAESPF
In short: as §1

Row | SMILES | EC50 (hGLP-1R) [nM] | Emax (hGIPR) [%] | EC50 (hGIPR) [nM] | EC50 (hGCGR) [nM] | Emax (hGLP-1R) [%]
1 | CCCCCCCCCCCC(=O)N[C@@H](CCC(=O)NCCOCCOCC(=O)NCCOCCOCC(=O)NCCCC[C@H](NC(=O)[C@H](CCCN)NC(=O)[C@H](CC(=O)O)NC(=O)[C@H](CC(C)C)NC(=O)[C@](C)(CC(C)C)NC(=O)[C@@H](NC(=O)[C@H](CO)NC(=O)[C@H](Cc1ccncc1)NC(=O)[C@H](CC(=O)O)NC(=O)[C@H](CO)NC(=O)[C@@H](NC(=O)[C@](C)(Cc1ccccc1F)NC(=O)[C@@H](NC(=O)CNC(=O)[C@H](CCC(=O)O)NC(=O)C(C)(C)NC(=O)[C@@H](N)Cc1ccc(O)cc1)[C@@H](C)O)[C@@H](C)O)[C@@H](C)CC)C(=O)N[C@@H](C)C(=O)N[C@@H](CCC(N)=O)C(=O)NC(C)(C)C(=O)N[C@@H](CCC(=O)O)C(=O)N[C@@H](Cc1ccccc1)C(=O)N[C@H](C(=O)N[C@H](CCC(=O)O)C(=O)N[C@@](C)(Cc1ccc(O)cc1)C(=O)N[C@@H](CC(C)C)C(=O)N[C@H](C(=O)N[C@@H](CCC(=O)O)C(=O)NCC(=O)N[C@@H](CCCCNC(=O)COCCOCCNC(=O)COCCOCCNC(=O)CC[C@H](NC(=O)CCCCCCCCCCC)C(=O)O)C(=O)N1CCC[C@H]1C(=O)N[C@@H](CO)C(=O)N[C@@H](CO)C(=O)NCC(=O)N[C@@H](C)C(=O)N1CCC[C@H]1C(=O)N1CCC[C@H]1C(=O)N1CCC[C@H]1C(=O)N[C@@H](CO)C(N)=O)[C@@H](C)CC)[C@@H](C)CC)C(=O)O [Example 140] | 0.131 | 98.5 ± 1.71 | 0.0121 | > 9950 | 
2 | CC[C@H](C)[C@H](NC(=O)[C@H](CC(C)C)NC(=O)[C@](C)(Cc1ccc(O)cc1)NC(=O)[C@@H](CCC(=O)O)NC(=O)[C@@H](NC(=O)[C@H](Cc1ccccc1)NC(=O)[C@H](CCC(=O)O)NC(=O)C(C)(C)NC(=O)[C@H](CCC(N)=O)NC(=O)[C@H](C)NC(=O)[C@H](CCCCNC(=O)COCCOCCNC(=O)COCCOCCNC(=O)CC[C@H](NC(=O)CCCCCCCCCCCCC(=O)O)C(=O)O)NC(=O)[C@H](CCCN)NC(=O)[C@H](CC(=O)O)NC(=O)[C@H](CC(C)C)NC(=O)[C@](C)(CC(C)C)NC(=O)[C@@H](NC(=O)[C@H](CO)NC(=O)[C@H](Cc1cscn1)NC(=O)[C@H](CC(=O)O)NC(=O)[C@H](CO)NC(=O)[C@@H](NC(=O)[C@](C)(Cc1ccccc1F)NC(=O)[C@@H](NC(=O)CNC(=O)[C@H](CCC(=O)O)NC(=O)C(C)(C)NC(=O)[C@@H](N)Cc1ccc(O)cc1)[C@@H](C)O)[C@@H](C)O)[C@@H](C)CC)[C@@H](C)CC)C(=O)N[C@@H](CCC(=O)O)C(=O)NCC(=O)NCC(=O)N[C@@H](CCCCNC(=O)COCCOCCNC(=O)COCCOCCNC(=O)CC[C@H](NC(=O)CCCCCCCCCCCCC(=O)O)C(=O)O)C(=O)N[C@@H](CO)C(=O)N[C@@H](CO)C(=O)NCC(=O)N[C@@H](C)C(=O)N1CCC[C@H]1C(=O)N1CCC[C@H]1C(=O)N1CCC[C@H]1C(=O)N[C@@H](CO)C(N)=O [Example 144] | 3.47 | 90 | 0.0193 | > 9950 | 97
3 | CC[C@H](C)[C@H](NC(=O)[C@H](CC(C)C)NC(=O)[C@](C)(Cc1ccc(O)cc1)NC(=O)[C@@H](CCC(=O)O)NC(=O)[C@@H](NC(=O)[C@H](Cc1ccccc1)NC(=O)[C@H](CCC(=O)O)NC(=O)C(C)(C)NC(=O)[C@H](CCC(N)=O)NC(=O)[C@H](C)NC(=O)[C@H](CCCCNC(=O)COCCOCCNC(=O)COCCOCCNC(=O)CC[C@H](NC(=O)CCCCCCCCCCCCC(=O)O)C(=O)O)NC(=O)[C@H](CCCN)NC(=O)[C@H](CC(=O)O)NC(=O)[C@H](CC(C)C)NC(=O)[C@](C)(CC(C)C)NC(=O)[C@@H](NC(=O)[C@H](CO)NC(=O)[C@H](Cc1cccs1)NC(=O)[C@H](CC(=O)O)NC(=O)[C@H](CO)NC(=O)[C@@H](NC(=O)[C@](C)(Cc1ccccc1F)NC(=O)[C@@H](NC(=O)CNC(=O)[C@H](CCC(=O)O)NC(=O)C(C)(C)NC(=O)[C@@H](N)Cc1ccc(O)cc1)[C@@H](C)O)[C@@H](C)O)[C@@H](C)CC)[C@@H](C)CC)C(=O)N[C@@H](CCC(=O)O)C(=O)NCC(=O)NCC(=O)N[C@@H](CCCCNC(=O)COCCOCCNC(=O)COCCOCCNC(=O)CC[C@H](NC(=O)CCCCCCCCCCCCC(=O)O)C(=O)O)C(=O)N[C@@H](CO)C(=O)N[C@@H](CO)C(=O)NCC(=O)N[C@@H](C)C(=O)N1CCC[C@H]1C(=O)N1CCC[C@H]1C(=O)N1CCC[C@H]1C(=O)N[C@@H](CO)C(N)=O [Example 145] | 0.555 | 74.8 | 0.0286 | > 9950 | 95.1
4 | CC[C@H](C)[C@H](NC(=O)[C@H](CC(C)C)NC(=O)[C@](C)(Cc1ccc(O)cc1)NC(=O)[C@@H](CCC(=O)O)NC(=O)[C@@H](NC(=O)[C@H](Cc1csc2ccccc12)NC(=O)[C@H](CCC(=O)O)NC(=O)C(C)(C)NC(=O)[C@H](CCC(N)=O)NC(=O)[C@H](C)NC(=O)[C@H](CCCCNC(=O)COCCOCCNC(=O)COCCOCCNC(=O)CC[C@H](NC(=O)CCCCCCCCCCCCC(=O)O)C(=O)O)NC(=O)[C@H](CCCN)NC(=O)[C@H](CC(=O)O)NC(=O)[C@H](CC(C)C)NC(=O)[C@](C)(CC(C)C)NC(=O)[C@@H](NC(=O)[C@H](CO)NC(=O)[C@H](Cc1ccncc1)NC(=O)[C@H](CC(=O)O)NC(=O)[C@H](CO)NC(=O)[C@@H](NC(=O)[C@](C)(Cc1ccccc1F)NC(=O)[C@@H](NC(=O)CNC(=O)[C@H](CCC(=O)O)NC(=O)C(C)(C)NC(=O)[C@@H](N)Cc1ccc(O)cc1)[C@@H](C)O)[C@@H](C)O)[C@@H](C)CC)[C@@H](C)CC)C(=O)N[C@@H](CCC(=O)O)C(=O)NCC(=O)NCC(=O)N[C@@H](CCCCNC(=O)COCCOCCNC(=O)COCCOCCNC(=O)CC[C@H](NC(=O)CCCCCCCCCCCCC(=O)O)C(=O)O)C(=O)N[C@@H](CO)C(=O)N[C@@H](CO)C(=O)NCC(=O)N[C@@H](C)C(=O)N1CCC[C@H]1C(=O)N1CCC[C@H]1C(=O)N1CCC[C@H]1C(=O)N[C@@H](CO)C(N)=O [Example 147] | 0.338 |  | 0.0229 | > 9950 | 93.5
5 | CC[C@H](C)[C@H](NC(=O)[C@H](CC(C)C)NC(=O)[C@](C)(Cc1ccc(O)cc1)NC(=O)[C@@H](CCC(=O)O)NC(=O)[C@@H](NC(=O)[C@H](CC1CCCCC1)NC(=O)[C@H](CCC(=O)O)NC(=O)C(C)(C)NC(=O)[C@H](CCC(N)=O)NC(=O)[C@H](C)NC(=O)[C@H](CCCCNC(=O)COCCOCCNC(=O)COCCOCCNC(=O)CC[C@H](NC(=O)CCCCCCCCCCCCC(=O)O)C(=O)O)NC(=O)[C@H](CCCN)NC(=O)[C@H](CC(=O)O)NC(=O)[C@H](CC(C)C)NC(=O)[C@](C)(CC(C)C)NC(=O)[C@@H](NC(=O)[C@H](CO)NC(=O)[C@H](Cc1ccncc1)NC(=O)[C@H](CC(=O)O)NC(=O)[C@H](CO)NC(=O)[C@@H](NC(=O)[C@](C)(Cc1ccccc1F)NC(=O)[C@@H](NC(=O)CNC(=O)[C@H](CCC(=O)O)NC(=O)C(C)(C)NC(=O)[C@@H](N)Cc1ccc(O)cc1)[C@@H](C)O)[C@@H](C)O)[C@@H](C)CC)[C@@H](C)CC)C(=O)N[C@@H](CCC(=O)O)C(=O)NCC(=O)NCC(=O)N[C@@H](CCCCNC(=O)COCCOCCNC(=O)COCCOCCNC(=O)CC[C@H](NC(=O)CCCCCCCCCCCCC(=O)O)C(=O)O)C(=O)N[C@@H](CO)C(=O)N[C@@H](CO)C(=O)NCC(=O)N[C@@H](C)C(=O)N1CCC[C@H]1C(=O)N1CCC[C@H]1C(=O)N1CCC[C@H]1C(=O)N[C@@H](CO)C(N)=O [Example 148] |  |  | 0.0209 | > 9950 | 94.5
